Reference: patent publication EP4467141A1, “PYRAZOLO-QUINOLINES AS SELECTIVE INHIBITORS OF GENOTOXIC STRESS-INDUCED IKK/NF- KB PATHWAYS FOR CANCER THERAPY” (Max-Delbrück-Centrum für Molekulare Medizin in der …, priority 2023, dated 2024)

Experiments:
[1] = target: T1, EPHA1 (Homo sapiens, UniProt P21709); experiment: Kinase panel study; format: biochemical; details: read-out: Percentage of inhibition; for inhibition at 1 µM: 1000nM; for inhibition at 10 µM: 10000nM
T1 construct: purchased Thermo Fisher Scientific
T1 sequence (P21709 26-976): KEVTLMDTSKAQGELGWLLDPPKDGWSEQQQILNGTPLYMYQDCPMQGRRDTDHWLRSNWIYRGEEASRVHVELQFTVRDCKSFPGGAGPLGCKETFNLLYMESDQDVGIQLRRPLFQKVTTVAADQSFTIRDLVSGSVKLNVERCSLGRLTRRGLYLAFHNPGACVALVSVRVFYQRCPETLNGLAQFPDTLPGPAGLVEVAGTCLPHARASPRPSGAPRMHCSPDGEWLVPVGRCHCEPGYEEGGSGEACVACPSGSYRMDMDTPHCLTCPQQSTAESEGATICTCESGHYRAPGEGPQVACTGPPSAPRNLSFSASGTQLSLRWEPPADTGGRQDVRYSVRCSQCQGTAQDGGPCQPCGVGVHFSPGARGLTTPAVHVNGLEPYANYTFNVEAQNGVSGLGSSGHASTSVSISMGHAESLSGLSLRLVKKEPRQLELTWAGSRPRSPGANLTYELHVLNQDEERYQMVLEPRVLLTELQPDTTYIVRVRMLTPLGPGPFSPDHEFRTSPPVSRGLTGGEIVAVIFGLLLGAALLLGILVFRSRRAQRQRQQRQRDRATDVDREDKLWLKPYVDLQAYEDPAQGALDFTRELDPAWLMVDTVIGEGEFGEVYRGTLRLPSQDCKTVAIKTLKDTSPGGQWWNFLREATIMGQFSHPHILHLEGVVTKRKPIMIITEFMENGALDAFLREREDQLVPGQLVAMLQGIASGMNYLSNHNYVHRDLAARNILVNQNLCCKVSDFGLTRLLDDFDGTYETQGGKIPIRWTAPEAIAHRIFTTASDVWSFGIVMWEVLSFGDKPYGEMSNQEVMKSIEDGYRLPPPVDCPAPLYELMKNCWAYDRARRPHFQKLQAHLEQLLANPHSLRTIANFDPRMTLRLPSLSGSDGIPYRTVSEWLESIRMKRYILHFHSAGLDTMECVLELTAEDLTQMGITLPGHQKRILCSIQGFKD
Method in brief: (§1)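 Percent inhibition of each kinase by the test compound, given at either 1 µM or 10 µM, came from a contracted panel run by ZLyte or Adapta protocol.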

[2] = target: T2, TXK (Homo sapiens, UniProt P42681); experiment: Kinase panel study; format: biochemical; details: read-out: Percentage of inhibition; for inhibition at 1 µM: 1000nM; for inhibition at 10 µM: 10000nM
T2 construct: purchased Thermo Fisher Scientific
T2 sequence (P42681 1-527): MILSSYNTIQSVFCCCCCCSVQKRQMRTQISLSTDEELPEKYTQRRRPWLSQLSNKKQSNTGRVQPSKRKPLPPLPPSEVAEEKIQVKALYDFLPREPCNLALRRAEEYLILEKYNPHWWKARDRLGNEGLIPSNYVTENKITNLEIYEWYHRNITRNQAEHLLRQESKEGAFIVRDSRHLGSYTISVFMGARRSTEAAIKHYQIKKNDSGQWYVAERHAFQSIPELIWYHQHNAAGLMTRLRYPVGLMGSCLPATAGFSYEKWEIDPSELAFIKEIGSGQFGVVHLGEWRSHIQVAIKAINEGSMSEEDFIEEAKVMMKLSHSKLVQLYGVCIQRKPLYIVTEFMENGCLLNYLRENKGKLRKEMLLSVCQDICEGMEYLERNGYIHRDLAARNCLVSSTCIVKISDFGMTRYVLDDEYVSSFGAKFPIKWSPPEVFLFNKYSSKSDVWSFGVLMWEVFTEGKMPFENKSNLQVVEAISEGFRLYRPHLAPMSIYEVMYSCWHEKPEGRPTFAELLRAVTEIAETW
Method in brief: as §1

| SMILES | inhibition at 1 µM [1] [%] | inhibition at 10 µM [1] [%] | inhibition at 1 µM [2] [%] | inhibition at 10 µM [2] [%] |
| --- | --- | --- | --- | --- |
| COc1ccc2cc3c(N)nn(C(=O)c4cccc(N(C)C)c4)c3nc2c1 [MW05, (3-Amino-7-methoxypyrazolo[3,4-b]quinolin-1-yl)-[3-(dimethylamino)phenyl]methanone] | 11 | -5 | 4 | -13 |
| COc1ccc2c(c1OC)c(=O)n1c3ccc(O)cc3c3ccnc2c31 [MW01, 5-Hydroxy-10,11-dimethoxy-9H-benzo[c]indolo[3,2,1-ij][1,5]naphthyridin-9-one] | 9 | 16 | 12 | 29 |
